IC50 data for 26 compounds are collected here from patent publication US20240199558A1, “2,4,6-TRISUBSTITUTED 1,3,5-TRIAZINES AS MODULATORS OF CX3CR1” (ASTRAZENECA AB, priority 2022, published 2024).

pIC50: −log10 of the molar value.

This assay deals with CX3CR1 (Homo sapiens (Human), UniProt P49238). The assay is described as follows: hCX3CR1 [3H]-AZD8797 competitive binding assay (filter). The following applies: CHO-hCX3CR1 membranes, 2 nM [3H]-AZD8797. As for the experimental part: hCX3CR1 [^3H]-AZD8797 Competitive Binding Assay (Filter)
Chain of CX3CR1 (P49238 whole entry): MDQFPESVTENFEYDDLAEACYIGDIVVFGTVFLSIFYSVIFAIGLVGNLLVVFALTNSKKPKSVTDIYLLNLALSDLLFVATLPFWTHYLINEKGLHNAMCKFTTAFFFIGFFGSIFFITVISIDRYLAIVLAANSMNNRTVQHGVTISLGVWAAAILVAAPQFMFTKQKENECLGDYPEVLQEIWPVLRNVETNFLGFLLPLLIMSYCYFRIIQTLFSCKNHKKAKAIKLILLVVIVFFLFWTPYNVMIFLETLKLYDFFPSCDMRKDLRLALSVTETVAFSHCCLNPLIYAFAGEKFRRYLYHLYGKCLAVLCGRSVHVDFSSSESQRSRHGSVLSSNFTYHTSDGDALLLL
CHO-hCX3CR1 membranes (9 μg per well) together with 2 nM [^3H]-AZD8797 and different concentrations of competitor compound were incubated in 25 mM HEPES (pH 7.4), 10 mM MgCl2, 1 mM CaCl2) and 0.5% BSA in a Corning polystyrene flat-bottom 96-well plate. The plate was incubated for 2 h at room temperature before free radioligand was separated from bound by vacuum filtration on to a Multiscreen HTS+HiFlow FB (Millipore) filter plate, using a Biomek FX (Beckman Coulter). The filter plate was washed in ice-cold 25 mM HEPES (pH 7.4), 5 mM MgCl2, 1 mM CaCl2) and 500 mM NaCl and dried at 50° C. for 1 h. Scintillation cocktail, Optiphase Supermix (PerkinElmer) was added to each well and the radioactivity was measured using a MicroBeta Trilux reader (PerkinElmer). The DMSO concentration was held constant at 1%.
A word on the pIC50: it is −log10 of the IC50, conventionally taken in molar units. Read a high pIC50 as a small IC50. `CC(C)C[C@H](CO)Nc1nc(C[C@H](C)c2c(F)cc(Cl)cc2F)nc(NS(C)(=O)=O)n1` (single isomer, unassigned) [Example 43, N-(4-((S*)-2-(4-Chloro-2,6-difluorophenyl)propyl)-6-(((R)-1-hydroxy-4-methylpentan-2-yl)amino)-1,3,5-triazin-2-yl)methanesulfonamide] had a pIC50 of 5.04. In turn, `CC(C)C[C@H](CO)Nc1nc(C[C@@H](C)c2c(F)cc(Cl)cc2F)nc(NS(C)(=O)=O)n1` (single isomer, unassigned) [Example 44, N-(4-((R*)-2-(4-Chloro-2,6-difluorophenyl)propyl)-6-(((R)-1-hydroxy-4-methylpentan-2-yl)amino)-1,3,5-triazin-2-yl)methanesulfonamide] had a pIC50 of 6.76. This pIC50 lies 1.72 log units higher than the previous one. With `COc1cc(F)c([C@@H](C)Cc2nc(N[C@@H](CO)CC(C)C)nc(NS(C)(=O)=O)n2)cn1` (single isomer, unassigned) [Example 45, N-(4-((S*)-2-(4-Fluoro-6-methoxypyridin-3-yl)propyl)-6-(((R)-1-hydroxy-4-methylpentan-2-yl)amino)-1,3,5-triazin-2-yl)methanesulfonamide] the figure was 6.12. The result for `CC[C@H](Cc1nc(N[C@@H](CO)CC(C)C)nc(NS(C)(=O)=O)n1)c1cccc(F)c1F` (single isomer, unassigned) [Example 47, N-(4-((R*)-2-(2,3-Difluorophenyl)butyl)-6-(((R)-1-hydroxy-4-methylpentan-2-yl)amino)-1,3,5-triazin-2-yl)methanesulfonamide] reads 7.20; that for `CC[C@@H](Cc1nc(N[C@@H](CO)CC(C)C)nc(NS(C)(=O)=O)n1)c1cccc(F)c1F` (single isomer, unassigned) [Example 48, N-(4-((S*)-2-(2,3-Difluorophenyl)butyl)-6-(((R)-1-hydroxy-4-methylpentan-2-yl)amino)-1,3,5-triazin-2-yl)methanesulfonamide], 6.51; that for `CC(C)C[C@H](CO)Nc1nc(C[C@H](C)c2ccc(N)nc2)nc(NS(C)(=O)=O)n1` (single isomer, unassigned) [Example 50, N-(4-((S*)-2-(6-Aminopyridin-3-yl)propyl)-6-(((R)-1-hydroxy-4-methylpentan-2-yl)amino)-1,3,5-triazin-2-yl)methanesulfonamide], 6.47. The result for `CC(C)C[C@H](CO)Nc1nc(C[C@@H](C)c2ccc(N)nc2)nc(NS(C)(=O)=O)n1` (single isomer, unassigned) [Example 51, N-(4-((R*)-2-(6-Aminopyridin-3-yl)propyl)-6-(((R)-1-hydroxy-4-methylpentan-2-yl)amino)-1,3,5-triazin-2-yl)methanesulfonamide] reads 7.52; that for `CC(C)C[C@H](CO)Nc1nc(C[C@H](C)c2ccc(F)c(Cl)c2)nc(NS(C)(=O)=O)n1` (single isomer, unassigned) [Example 65, N-(4-((S*)-2-(3-Chloro-4-fluorophenyl)propyl)-6-(((R)-1-hydroxy-4-methylpentan-2-yl)amino)-1,3,5-triazin-2-yl)methanesulfonamide], 5.38.

For `CC(C)C[C@H](CO)Nc1nc(C[C@@H](C)c2ccc(F)c(Cl)c2)nc(NS(C)(=O)=O)n1` (single isomer, unassigned) [Example 66, N-(4-((R*)-2-(3-Chloro-4-fluorophenyl)propyl)-6-(((R)-1-hydroxy-4-methylpentan-2-yl)amino)-1,3,5-triazin-2-yl)methanesulfonamide], the pIC50 was 6.65. `CC(C)C[C@H](CO)Nc1nc(C[C@H](C)c2c(F)cccc2F)nc(NS(C)(=O)=O)n1` (single isomer, unassigned) [Example 77, N-(4-((S*)-2-(2,6-Difluorophenyl)propyl)-6-(((R)-1-hydroxy-4-methylpentan-2-yl)amino)-1,3,5-triazin-2-yl)methanesulfonamide] had a pIC50 of 5.49. The compound `CC(C)C[C@H](CO)Nc1nc(C[C@@H](C)c2c(F)cccc2F)nc(NS(C)(=O)=O)n1` (single isomer, unassigned) [Example 78, N-(4-((R*)-2-(2,6-Difluorophenyl)propyl)-6-(((R)-1-hydroxy-4-methylpentan-2-yl)amino)-1,3,5-triazin-2-yl)methanesulfonamide] gave a negative logarithm of the IC50 (pIC50) of 7.66.

For `COc1ccc([C@@H](C)Cc2nc(N[C@@H](CO)CC(C)C)nc(NS(C)(=O)=O)n2)c(F)n1` (single isomer, unassigned) [Example 86, N-(4-((S*)-2-(2-Fluoro-6-methoxypyridin-3-yl)propyl)-6-(((R)-1-hydroxy-4-methylpentan-2-yl)amino)-1,3,5-triazin-2-yl)methanesulfonamide], the negative logarithm of the IC50 (pIC50) was 7.14. This pIC50 is 0.52 log units lower than that of the compound before.

The compound `CC(C)C[C@H](CO)Nc1nc(C[C@H](C)c2ccnc(F)c2)nc(NS(C)(=O)=O)n1` (single isomer, unassigned) [Example 90, N-(4-((S*)-2-(2-Fluoropyridin-4-yl)propyl)-6-(((R)-1-hydroxy-4-methylpentan-2-yl)amino)-1,3,5-triazin-2-yl)methanesulfonamide] showed a pIC50 of 5.77. With `CC(C)C[C@H](CO)Nc1nc(C[C@@H](C)c2ccnc(F)c2)nc(NS(C)(=O)=O)n1` (single isomer, unassigned) [Example 91, N-(4-((R*)-2-(2-Fluoropyridin-4-yl)propyl)-6-(((R)-1-hydroxy-4-methylpentan-2-yl)amino)-1,3,5-triazin-2-yl)methanesulfonamide] the figure was 7.47. The compound `CC(C)C[C@H](CO)Nc1nc(CC(C)c2ccc(C#N)cc2)nc(NS(C)(=O)=O)n1` (single isomer, unassigned) [Example 164, N-(4-((S*)-2-(4-Cyanophenyl)propyl)-6-(((R)-1-hydroxy-4-methylpentan-2-yl)amino)-1,3,5-triazin-2-yl)methanesulfonamide] gave a negative logarithm of the IC50 (pIC50) of 5.83. With `CC(C)C[C@H](CO)Nc1nc(CC(C)c2ccc(C#N)cc2)nc(NS(C)(=O)=O)n1` (single isomer, unassigned) [Example 165, N-(4-((R*)-2-(4-Cyanophenyl)propyl)-6-(((R)-1-hydroxy-4-methylpentan-2-yl)amino)-1,3,5-triazin-2-yl)methanesulfonamide] the figure was 6.55; with `CC(C)C[C@H](CO)Nc1nc(C[C@H](C)c2ccc(Cl)cc2)nc(NS(C)(=O)=O)n1` (single isomer, unassigned) [Example 171, N-(4-((R*)-2-(4-Chlorophenyl)propyl)-6-(((R)-1-hydroxy-4-methylpentan-2-yl)amino)-1,3,5-triazin-2-yl)methanesulfonamide], 6.11; with `CCC(Cc1nc(N[C@@H](CO)CC(C)C)nc(NS(C)(=O)=O)n1)c1cnc(OC)cc1F` (stereo partly drawn) [Example 49, N-(4-(2-(4-Fluoro-6-methoxypyridin-3-yl)butyl)-6-(((R)-1-hydroxy-4-methylpentan-2-yl)amino)-1,3,5-triazin-2-yl)methanesulfonamide], 6.32. The result for `CC(C)C[C@H](CO)Nc1nc(CC(C)c2ccc(N3CCNCC3)cc2)nc(NS(C)(=O)=O)n1` (stereo partly drawn) [Example 54, N-(4-(((R)-1-Hydroxy-4-methylpentan-2-yl)amino)-6-(2-(4-(piperazin-1-yl)phenyl)propyl)-1,3,5-triazin-2-yl)methanesulfonamide] reads 6.82. Compound `CC(C)C[C@H](CO)Nc1nc(CC(C)c2ccc(CC#N)cc2)nc(NS(C)(=O)=O)n1` (stereo partly drawn) [Example 55, N-(4-(2-(4-(Cyanomethyl)phenyl)propyl)-6-(((R)-1-hydroxy-4-methylpentan-2-yl)amino)-1,3,5-triazin-2-yl)methanesulfonamide] gave a pIC50 of 6.86.

On to `Cc1ccc(C(C)Cc2nc(N[C@@H](CO)CC(C)C)nc(NS(C)(=O)=O)n2)cc1F` (stereo partly drawn) [Example 56, N-(4-(2-(3-Fluoro-4-methylphenyl)propyl)-6-(((R)-1-hydroxy-4-methylpentan-2-yl)amino)-1,3,5-triazin-2-yl)methanesulfonamide], for which the negative-log IC50 (pIC50) was 6.69. The result for `CC(C)C[C@H](CO)Nc1nc(CC(C)c2ccc(C3COC3)cc2)nc(NS(C)(=O)=O)n1` (stereo partly drawn) [Example 57, N-(4-(((R)-1-Hydroxy-4-methylpentan-2-yl)amino)-6-(2-(4-(oxetan-3-yl)phenyl)propyl)-1,3,5-triazin-2-yl)methanesulfonamide] reads 6.95. With `CC(C)C[C@H](CO)Nc1nc(CC(C)c2cccc(F)c2)nc(NS(C)(=O)=O)n1` (stereo partly drawn) [Example 58, N-(4-(2-(3-Fluorophenyl)propyl)-6-(((R)-1-hydroxy-4-methylpentan-2-yl)amino)-1,3,5-triazin-2-yl)methanesulfonamide] the figure was 6.98. The result for `CC(=O)Nc1ccc(C(C)Cc2nc(N[C@@H](CO)CC(C)C)nc(NS(C)(=O)=O)n2)cc1` (stereo partly drawn) [Example 59, N-(4-(1-(4-(((R)-1-Hydroxy-4-methylpentan-2-yl)amino)-6-(methylsulfonamido)-1,3,5-triazin-2-yl)propan-2-yl)phenyl)acetamide] reads 6.53; that for `CC(C)C[C@H](CO)Nc1nc(CC(C)c2ccc3[nH]ccc3c2)nc(NS(C)(=O)=O)n1` (stereo partly drawn) [Example 60, N-(4-(2-(1H-Indol-5-yl)propyl)-6-(((R)-1-hydroxy-4-methylpentan-2-yl)amino)-1,3,5-triazin-2-yl)methanesulfonamide], 6.99; that for `CC(C)C[C@H](CO)Nc1nc(CC(C)c2ccc3ncoc3c2)nc(NS(C)(=O)=O)n1` (stereo partly drawn) [Example 61, N-(4-(2-(Benzo[d]oxazol-6-yl)propyl)-6-(((R)-1-hydroxy-4-methylpentan-2-yl)amino)-1,3,5-triazin-2-yl)methanesulfonamide], 7.12.
